Results: PubChem BioAssay (NCI)
Values joined by “and” are separate entries in the source; they are usually repeats but may differ in a detail not shown here. Equal entries are not always repeated.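 Cultured in 96-well plates, cells were exposed to test compound for 48 hours across five concentrations. GI50 marks 50% less growth. TGI marks complete inhibition of growth.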

Experiments:
Assay in all cases: inhibition of tumour cell growth, NCI panel, 48 h
[1] = system: OVCAR-5 ovarian
[2] = system: OVCAR-4 ovarian
[3] = system: SF-295 CNS
[4] = system: 786-0 renal
[5] = system: OVCAR-3 ovarian
[6] = system: MOLT-4 leukemia
[7] = system: SK-MEL-2 melanoma
[8] = system: CCRF-CEM leukemia
[9] = system: SF-268 CNS
[10] = system: MCF7 breast

Structure (SMILES)	TGI [1]	TGI [2]	TGI [3]	TGI [4]	TGI [5] [µM]	TGI [6]	TGI [7]	TGI [8]	TGI [9]	TGI [10]	GI50 [1]	GI50 [2]	GI50 [3]	GI50 [4]	GI50 [5]	GI50 [6]	GI50 [7]	GI50 [8]	GI50 [9]	GI50 [10]
COc1ccc(CC(C)NCC(O)c2ccc(O)c(NC=O)c2)cc1 (configuration not stated)	> 100 µM	> 100 µM	> 100 µM	> 100 µM	> 100	> 100 µM	> 100 µM	> 100 µM	> 100 µM	> 100 µM										
CCn1c(-c2nonc2N)nc2cnc(Oc3cccc(NC(=O)c4ccc(OCCN5CCOCC5)cc4)c3)cc21	> 25 µM	> 25 µM	> 16.9 µM	> 25 µM	> 25	24.4 µM	> 25 µM	> 25 µM	> 25 µM	> 25 µM	5.22 µM	4.48 µM	0.974 µM	3.49 µM	7.17 µM	4.29 µM	7.54 µM	0.671 µM	0.724 µM	3.87 µM
O=C(O)c1c2c(c(O)c3c1CN(C1CCCCC1)CO3)OCN(C1CCCCC1)C2	> 100 µM	> 100 µM	> 100 µM	> 100 µM	> 100	40.1 µM	> 100 µM	55.7 µM	> 100 µM	39.2 µM										
O=C(O)CN(CCN(CC(=O)O)CC(=O)O)CCN(CC(=O)O)CC(=O)O	20 µM	7.51 µM	21.3 µM	6.72 µM	9.84	8.26 µM	9.8 µM	> 100 µM	10.8 µM	22.1 µM	4.01 µM	2.51 µM	3.25 µM	2.54 µM	3.51 µM	2.57 µM	3.16 µM	3.18 µM	3.04 µM	3.75 µM
Nc1nc(N)c2cc(S(=O)(=O)c3cccc(C(F)(F)F)c3)ccc2n1	> 100 µM	> 100 µM	97.5 µM	> 100 µM	> 100	> 100 µM	73.2 µM	> 100 µM	> 100 µM	> 100 µM	6.46 µM	5.71 µM	2.57 µM	3.98 µM	6 µM	4.32 µM	11 µM	3.41 µM	4.57 µM	5.7 µM
CCOC(=O)c1sc2nc(=S)[nH]c(NC(N)=S)c2c1C	75.7 µM	> 100 µM	65.8 µM	45.5 µM	56.2	> 100 µM	> 100 µM	73.9 µM	42.7 µM	37.2 µM	26.1 µM	35.4 µM	24.4 µM	21.5 µM	26.4 µM	30.1 µM	46.7 µM	7.22 µM	17.8 µM	16.5 µM
CC(C)Cn1cnc2c(N)nc3ccccc3c21	> 100 µM	> 100 µM	> 100 µM	> 87.3 µM	> 100	> 100 µM	> 100 µM	> 100 µM	> 100 µM	> 100 µM	65.4 µM	67.2 µM	51.3 µM	25.2 µM	> 92.9 µM	> 64.4 µM	41.5 µM	> 49 µM	61.3 µM	29.4 µM
CC(C)OC(=O)Nc1c([N+](=O)[O-])cc(C(F)(F)F)cc1[N+](=O)[O-]	> 100 µM	> 100 µM	98.2 µM	> 100 µM	> 100	> 46.4 µM	> 100 µM	> 100 µM	> 100 µM	> 100 µM										
C=CC(=O)N1CCN([C@@H](CC2CC2)c2ccc([C@H](C)Nc3ncc4c(n3)N(CC)C(=O)OC4)cc2)CC1	35.4 µM	28.4 µM	26.3 µM	25.7 µM	26.5	26.4 µM	27.4 µM	25.2 µM	28.5 µM	24.6 µM	16.6 µM	12.3 µM	13 µM	11.2 µM	12 µM	4.51 µM	12.6 µM	4.29 µM	11.7 µM	6.66 µM
COc1cc(OC)c(OC)cc1/C=C/c1ccccn1	> 10 µM	> 10 µM	> 10 µM	> 10 µM	> 10	> 10 µM	> 10 µM	> 10 µM	> 10 µM	> 10 µM										
CN1CCN(CCCOC(=O)c2c3c(n4ccccc24)C(=O)c2ncccc2C3=O)CC1	3.65 µM	3.78 µM	0.199 µM	0.0407 µM	4.95	23.4 µM	0.274 µM	> 30.4 µM	10.3 µM	0.0178 µM	0.357 µM	0.537 µM	< 0.0117 µM	< 0.01 µM	0.0403 µM	0.0604 µM	0.0313 µM	0.041 µM	< 0.01 µM	< 0.01 µM
CCOc1cc(/C=C/C(=O)CC(=O)/C=C/c2ccc(OC(=O)CNc3nc4ccc(OC)cc4s3)c(OCC)c2)ccc1OC(=O)CNc1nc2ccc(OC)cc2s1	34 µM	68.5 µM	33.2 µM	85.1 µM	29	11.1 µM	29.1 µM	5.46 µM	25.8 µM	10.8 µM	15.3 µM	13.6 µM	15.4 µM	17 µM	4.45 µM	3.14 µM	4.94 µM	1.96 µM	3.12 µM	2.54 µM
CC[C@@H]1C(=O)N(C)c2cnc(Nc3ccc(C(=O)NC4CCC(N5CCN(CC6CC6)CC5)CC4)cc3OC)nc2N1C(C)C (some centres not stated)	> 10 µM and 16.9 µM	> 10 µM and 19 µM	2.51 µM and 2.44 µM	> 3.29 µM and 1.28 µM		> 5.38 µM and 1.28 µM	1.97 µM and 2.27 µM	> 7.37 µM and 4.22 µM	> 10 µM and 7.8 µM	2.01 µM and 2.62 µM	0.0146 µM and 0.0502 µM	0.89 µM and 0.466 µM	0.0353 µM and 0.0406 µM	0.0614 µM and 0.0721 µM	0.013 µM and < 0.0161 µM	0.0116 µM and 0.019 µM	0.0221 µM and 0.0351 µM	0.00974 µM and < 0.01 µM	0.0586 µM and 0.0485 µM	0.00507 µM and < 0.01 µM
CCCCCCCCCCCC(c1ccccc1)[N+](C)(C)C (configuration not stated)	4.97 µM	4.05 µM	8.9 µM	3.55 µM	2.35	4.02 µM	3.06 µM	4.12 µM	2.61 µM	3.19 µM	0.998 µM	1.13 µM	2.32 µM	1.63 µM	0.815 µM	1.36 µM	1.51 µM	1.41 µM	1.26 µM	1.44 µM
N#CSc1c[nH]c2ccc(/C=C/C(=O)/C=C(O)/C=C/c3ccc4[nH]cc(SC#N)c4c3)cc12	14.8 µM	18.6 µM	13.3 µM	9.53 µM	4.06	5.44 µM	12.3 µM	8.08 µM	13.1 µM	4.15 µM	3.6 µM	1.42 µM	3.03 µM	0.956 µM	0.515 µM	1.61 µM	3.23 µM	0.612 µM	2.65 µM	0.871 µM
OC(c1ccccc1)c1c(-c2ccccc2)[nH]c(-c2ccccc2)c1C(O)c1ccccc1 (configuration not stated)	10.8 µM	4.82 µM	38.6 µM	16.1 µM	8.33	7 µM	5.18 µM	6.08 µM	23 µM	19.1 µM										
COc1ccc(-c2cc(=O)c3c(C)ccnc3[nH]2)cc1	68.4 µM	> 100 µM	> 100 µM	> 100 µM	92	50 µM	28.1 µM	44.8 µM	44.3 µM	> 100 µM			19.5 µM	25.3 µM	13.9 µM					
COc1cccc2c1C(=O)c1c(O)c3c(c(O)c1C2=O)C[C@@](O)(/C(C)=N/NC(=O)c1cccc([N+](=O)[O-])c1)C[C@@H]3OC1CC(N)C(O)C(C)O1 (some centres not stated)	13.5 µM	11.3 µM	0.997 µM	5.68 µM	5.26	4.9 µM	3.23 µM	4.33 µM	2.26 µM	18.5 µM	0.919 µM	0.65 µM	0.187 µM	0.306 µM	0.396 µM	0.0524 µM	0.996 µM	0.167 µM	0.269 µM	0.0613 µM
Clc1cccc(-c2cc(-c3ccc4c(c3)OCCO4)[nH]n2)c1	47.7 µM	49.5 µM	45.1 µM	64.9 µM	31.3	74.6 µM	74.9 µM	182 µM	57.1 µM	32.9 µM	10.4 µM	13.8 µM	9.71 µM	23.1 µM	1.95 µM	3.15 µM	18.9 µM	6.99 µM	12.4 µM	4.25 µM
CN1CCC2(CC1)C(=O)Nc1cc(NC(=O)c3ccc4c(c3)C[C@@H]3C(C)(C)[C@H](O)[C@H](F)C[C@@]3(C)O4)ccc12	> 100 µM	> 100 µM	0.256 µM	14.9 µM	66.8	1.5 µM	32.3 µM	> 100 µM	31.9 µM	21.4 µM	12.3 µM	25.9 µM	0.0495 µM	0.249 µM	18.5 µM	0.0342 µM	11.3 µM	0.092 µM	6.68 µM	0.0925 µM
